Measurements taken from patent publication US9290777B2, “Putative cytokinin receptor and methods for use thereof” (NATIONAL UNIVERSITY OF SINGAPORE, priority 2007, dated 2016).

System: ARR6
Assay: qRT-PCR of cytokinin responsive gene after BA pulse, fold change vs untreated wild type
Assay type: cell-based, Arabidopsis thaliana
Experimental: For quantitative real-time PCR (qRT-PCR) analysis of cytokinin-inducible gene expression, seeds were germinated on MS medium with 3% (w/v) sucrose and grown for 6 days. Cytokinin treatment was carried out by incubating seedlings in the same MS+sucrose liquid medium (no agar) supplemented with 0, 0.01, 0.1, 1 or 5 μM [solubilized in 0.1% dimethylsulfoxide (DMSO) and diluted with the MS medium] for 5 min, 15 min, 30 min or 1 h. The control seedlings were incubated with DMSO (0.1%, the concentration used to dissolve cytokinins for the treatment) for the corresponding durations and used for expression analysis. Before RNA preparation, WT, OE and AS seedlings were pooled and stored in RNAlater solution (Qiagen, Valencia, Calif.). Total RNA was extracted using the Rneasy Plant Mini Kit (Qiagen). SYBRgreen RT-PCR reagents (Applied Biosystems) were used to synthesize double-stranded cDNA. The number of transcripts present in biological replicates each of WT, OE and AS seedlings, with or without BA and DMSO, was determined from three independent replicates. Fold induction of the transcripts was calculated according to the manufacturer's instructions (ABI Prism 7700 Sequence Detection System, User Bulletin #2).

c1ccc(CNc2ncnc3nc[nH]c23)cc1 [benzyladenine]
ARR6 fold change (BA 0.01 μM, 5 min, AS1, ↑ up): 4.12↑ | ARR6 fold change (BA 0.01 μM, 5 min, AS8, ↑ up): 7.1↑ | ARR6 fold change (BA 0.01 μM, 5 min, AS21, ↑ up): 9.2↑ | ARR6 fold change (BA 0.01 μM, 5 min, OE1, ↓ down): 5.51↓ | ARR6 fold change (BA 0.01 μM, 5 min, OE12, ↓ down): 6.87↓ | ARR6 fold change (BA 0.01 μM, 5 min, OE18, ↓ down): 8.56↓ | ARR6 fold change (BA 0.01 μM, 5 min, Wild type, ↑ up): 4.13↑ | ARR6 fold change (BA 0.01 μM, 15 min, AS1, ↑ up): 4.57↑ | ARR6 fold change (BA 0.01 μM, 15 min, AS8, ↑ up): 7.41↑ | ARR6 fold change (BA 0.01 μM, 15 min, AS21, ↑ up): 9.58↑ | ARR6 fold change (BA 0.01 μM, 15 min, OE1, ↓ down): 5.33↓ | ARR6 fold change (BA 0.01 μM, 15 min, OE12, ↓ down): 6.56↓ | ARR6 fold change (BA 0.01 μM, 15 min, OE18, ↓ down): 8.32↓ | ARR6 fold change (BA 0.01 μM, 15 min, Wild type, ↑ up): 4.67↑ | ARR6 fold change (BA 0.01 μM, 30 min, AS1, ↑ up): 5.98↑ | ARR6 fold change (BA 0.01 μM, 30 min, AS8, ↑ up): 7.86↑ | ARR6 fold change (BA 0.01 μM, 30 min, AS21, ↑ up): 9.79↑ | ARR6 fold change (BA 0.01 μM, 30 min, OE1, ↓ down): 5.11↓ | ARR6 fold change (BA 0.01 μM, 30 min, OE12, ↓ down): 6.13↓ | ARR6 fold change (BA 0.01 μM, 30 min, OE18, ↓ down): 8.13↓ | ARR6 fold change (BA 0.01 μM, 30 min, Wild type, ↑ up): 4.98↑ | ARR6 fold change (BA 0.01 μM, 1 h, AS1, ↑ up): 6.2↑ | ARR6 fold change (BA 0.01 μM, 1 h, AS8, ↑ up): 7.98↑ | ARR6 fold change (BA 0.01 μM, 1 h, AS21, ↑ up): 10.15↑ | ARR6 fold change (BA 0.01 μM, 1 h, OE1, ↓ down): 4.91↓ | ARR6 fold change (BA 0.01 μM, 1 h, OE12, ↓ down): 5.06↓ | ARR6 fold change (BA 0.01 μM, 1 h, OE18, ↓ down): 7.98↓ | ARR6 fold change (BA 0.01 μM, 1 h, Wild type, ↑ up): 5.15↑ | ARR6 fold change (BA 0.1 μM, 5 min, AS1, ↑ up): 6.14↑ | ARR6 fold change (BA 0.1 μM, 5 min, AS8, ↑ up): 8.12↑ | ARR6 fold change (BA 0.1 μM, 5 min, AS21, ↑ up): 10.31↑ | ARR6 fold change (BA 0.1 μM, 5 min, OE1, ↓ down): 5.1↓ | ARR6 fold change (BA 0.1 μM, 5 min, OE12, ↓ down): 5.91↓ | ARR6 fold change (BA 0.1 μM, 5 min, OE18, ↓ down): 7.89↓ | ARR6 fold change (BA 0.1 μM, 5 min, Wild type, ↑ up): 5.36↑ | ARR6 fold change (BA 0.1 μM, 15 min, AS1, ↑ up): 6.39↑ | ARR6 fold change (BA 0.1 μM, 15 min, AS8, ↑ up): 8.32↑ | ARR6 fold change (BA 0.1 μM, 15 min, AS21, ↑ up): 10.46↑ | ARR6 fold change (BA 0.1 μM, 15 min, OE1, ↓ down): 5.04↓ | ARR6 fold change (BA 0.1 μM, 15 min, OE12, ↓ down): 5.71↓ | ARR6 fold change (BA 0.1 μM, 15 min, OE18, ↓ down): 5.72↓ | ARR6 fold change (BA 0.1 μM, 15 min, Wild type, ↑ up): 5.58↑ | ARR6 fold change (BA 0.1 μM, 30 min, AS1, ↑ up): 6.69↑ | ARR6 fold change (BA 0.1 μM, 30 min, AS8, ↑ up): 8.57↑ | ARR6 fold change (BA 0.1 μM, 30 min, AS21, ↑ up): 10.68↑ | ARR6 fold change (BA 0.1 μM, 30 min, OE1, ↓ down): 4.9↓ | ARR6 fold change (BA 0.1 μM, 30 min, OE12, ↓ down): 5.59↓ | ARR6 fold change (BA 0.1 μM, 30 min, OE18, ↓ down): 5.36↓ | ARR6 fold change (BA 0.1 μM, 30 min, Wild type, ↑ up): 5.89↑ | ARR6 fold change (BA 0.1 μM, 1 h, AS1, ↑ up): 6.98↑ | ARR6 fold change (BA 0.1 μM, 1 h, AS8, ↑ up): 8.99↑ | ARR6 fold change (BA 0.1 μM, 1 h, AS21, ↑ up): 10.97↑ | ARR6 fold change (BA 0.1 μM, 1 h, OE1, ↓ down): 4.67↓ | ARR6 fold change (BA 0.1 μM, 1 h, OE12, ↓ down): 4.61↓ | ARR6 fold change (BA 0.1 μM, 1 h, OE18, ↓ down): 5.01↓ | ARR6 fold change (BA 0.1 μM, 1 h, Wild type, ↑ up): 5.99↑ | ARR6 fold change (BA 1.0 μM, 5 min, AS1, ↑ up): 7.43↑ | ARR6 fold change (BA 1.0 μM, 5 min, AS8, ↑ up): 9.01↑ | ARR6 fold change (BA 1.0 μM, 5 min, AS21, ↑ up): 10.99↑ | ARR6 fold change (BA 1.0 μM, 5 min, OE1, ↓ down): 4.96↓ | ARR6 fold change (BA 1.0 μM, 5 min, OE12, ↓ down): 5.19↓ | ARR6 fold change (BA 1.0 μM, 5 min, OE18, ↓ down): 4.36↓ | ARR6 fold change (BA 1.0 μM, 5 min, Wild type, ↑ up): 6.1↑ | ARR6 fold change (BA 1.0 μM, 15 min, AS1, ↑ up): 7.68↑ | ARR6 fold change (BA 1.0 μM, 15 min, AS8, ↑ up): 9.43↑ | ARR6 fold change (BA 1.0 μM, 15 min, AS21, ↑ up): 11.12↑ | ARR6 fold change (BA 1.0 μM, 15 min, OE1, ↓ down): 4.71↓ | ARR6 fold change (BA 1.0 μM, 15 min, OE12, ↓ down): 5.01↓ | ARR6 fold change (BA 1.0 μM, 15 min, OE18, ↓ down): 4.21↓ | ARR6 fold change (BA 1.0 μM, 15 min, Wild type, ↑ up): 6.31↑ | ARR6 fold change (BA 1.0 μM, 30 min, AS1, ↑ up): 7.73↑ | ARR6 fold change (BA 1.0 μM, 30 min, AS8, ↑ up): 9.69↑ | ARR6 fold change (BA 1.0 μM, 30 min, AS21, ↑ up): 11.35↑ | ARR6 fold change (BA 1.0 μM, 30 min, OE1, ↓ down): 4.49↓ | ARR6 fold change (BA 1.0 μM, 30 min, OE12, ↓ down): 4.89↓ | ARR6 fold change (BA 1.0 μM, 30 min, OE18, ↓ down): 4.01↓ | ARR6 fold change (BA 1.0 μM, 30 min, Wild type, ↑ up): 6.59↑ | ARR6 fold change (BA 1.0 μM, 1 h, AS1, ↑ up): 8.01↑ | ARR6 fold change (BA 1.0 μM, 1 h, AS8, ↑ up): 9.93↑ | ARR6 fold change (BA 1.0 μM, 1 h, AS21, ↑ up): 11.76↑ | ARR6 fold change (BA 1.0 μM, 1 h, OE1, ↓ down): 3.21↓ | ARR6 fold change (BA 1.0 μM, 1 h, OE12, ↓ down): 3.56↓ | ARR6 fold change (BA 1.0 μM, 1 h, OE18, ↓ down): 3.01↓ | ARR6 fold change (BA 1.0 μM, 1 h, Wild type, ↑ up): 6.87↑ | ARR6 fold change (BA 5.0 μM, 5 min, AS1, ↑ up): 7.98↑ | ARR6 fold change (BA 5.0 μM, 5 min, AS8, ↑ up): 9.98↑ | ARR6 fold change (BA 5.0 μM, 5 min, AS21, ↑ up): 11.43↑ | ARR6 fold change (BA 5.0 μM, 5 min, OE1, ↓ down): 4.19↓ | ARR6 fold change (BA 5.0 μM, 5 min, OE12, ↓ down): 4.67↓ | ARR6 fold change (BA 5.0 μM, 5 min, OE18, ↓ down): 3.45↓ | ARR6 fold change (BA 5.0 μM, 5 min, Wild type, ↑ up): 7.52↑ | ARR6 fold change (BA 5.0 μM, 15 min, AS1, ↑ up): 8.01↑ | ARR6 fold change (BA 5.0 μM, 15 min, AS8, ↑ up): 10.07↑ | ARR6 fold change (BA 5.0 μM, 15 min, AS21, ↑ up): 11.56↑ | ARR6 fold change (BA 5.0 μM, 15 min, OE1, ↓ down): 4.01↓ | ARR6 fold change (BA 5.0 μM, 15 min, OE12, ↓ down): 4.62↓ | ARR6 fold change (BA 5.0 μM, 15 min, OE18, ↓ down): 3.18↓ | ARR6 fold change (BA 5.0 μM, 15 min, Wild type, ↑ up): 7.69↑ | ARR6 fold change (BA 5.0 μM, 30 min, AS1, ↑ up): 8.23↑ | ARR6 fold change (BA 5.0 μM, 30 min, Wild type, ↑ up): 7.89↑
